Laboratory results as given in patent US20140360727A1, “REMEDIATION OF ASPHALTENE-INDUCED PLUGGING OF AN OIL-BEARING FORMATION” (SHELL OIL COMPANY, priority 2013, published 2014).
Read-outs that look alike come from different tables or passages of the source.

Legend:
Type in all cases: physicochemical
[1] = SARA analysis of bitumen samples extracted from oil sands by each solvent
Protocol: The bitumen samples extracted at 30° C. from each oil sands sample were evaluated by SARA analysis to determine the saturates, aromatics, resins, and asphaltenes composition of the bitumen samples extracted by each solvent.

[2] = Time required to entirely dissolve naturally occurring tar mat material; conditions: DMS versus A150, both experiments
Protocol: Two experiments were conducted on a naturally occurring tar mat material recovered from an oil-bearing formation to compare the rate of dissolution of the tar mat material using dimethyl sulfide and A150, a commercially available solvent comprised of a mixture of aromatic hydrocarbons that is commonly used to dissolve tar mats. A naturally occurring tar mat material recovered from an oil-bearing formation at a depth of 4690 meters and at a formation temperature of 50° C. was utilized as the tar mat material for the comparison.
(§1) In the first experiment, two samples of DMS solvent and two samples of A150 solvent were individually mixed with the tar mat material at ambient temperature and pressure, where the volume (ml) to weight (g) ratio of each solvent sample to the tar mat material was approximately 100:1. The length of time required to entirely dissolve the tar mat material was measured and recorded.
as §1, with “second” for “first”, “four” for “two”, “10:1.” for “100:1.”

[3] = Extraction of mined oil sands with solvents (cyclic contact and drain); conditions: 10 C and 30 C; FIGS. 4 and 5 and Table 1
Protocol: Each oil sands sample was weighed and placed in a cellulose extraction thimble that was placed on a porous polyethylene support disk in a jacketed glass cylinder with a drip rate control valve. Each oil sands sample was then extracted with a selected solvent at a selected temperature (10° C. or 30° C.) in a cyclic contact and drain experiment, where the contact time ranged from 15 to 60 minutes. Fresh contacting solvent was applied and the cyclic extraction repeated until the fluid drained from the apparatus became pale brown in color.
The extracted fluids were stripped of solvent using a rotary evaporator and thereafter vacuum dried to remove residual solvent. […] The residual solids and extraction thimble were air dried, weighed, and then vacuum dried.

| Effectiveness for extraction of asphaltenes from oil sands (SARA) ([1]; bitumen extracted at 30 C) | Rate of tar mat dissolution relative to A150 [2] | Recovery of bitumen from oil sand material versus best known fluids [3] | SMILES | Aromatics, oil composition of extracted bitumen ([1]; bitumen extracted at 30 C) [Normalized Weight Percent] | Asphaltenes, oil composition of extracted bitumen ([1]; bitumen extracted at 30 C) [Normalized Weight Percent] | Resins, oil composition of extracted bitumen ([1]; bitumen extracted at 30 C) [Normalized Weight Percent] | Saturates, oil composition of extracted bitumen ([1]; bitumen extracted at 30 C) [Normalized Weight Percent] | Aromatics, oil composition of extracted bitumen [1] [Normalized Weight Percent] | Asphaltenes, oil composition of extracted bitumen [1] [Normalized Weight Percent] | Resins, oil composition of extracted bitumen [1] [Normalized Weight Percent] |
| --- | --- | --- | --- | --- | --- | --- | --- | --- | --- | --- |
|  |  |  | S=C=S [Carbon Disulfide, carbon disulfide] | 41.89 | 13.85 | 25.49 | 18.77 |  |  |  |
|  |  |  | ClC(Cl)Cl [Chloroform, chloroform] |  |  |  | 15.64 | 43.56 | 14.86 | 25.94 |
| excellent miscibility properties | not less than 1.4 times | comparable | CSC [Dimethyl Sulfide, dimethyl sulfide] | 47.07 | 13.19 | 24.25 | 15.49 |  |  |  |
|  |  |  | C1CCOC1 [Tetrahydrofuran, tetrahydrofuran] | 45.24 | 14.27 | 24.38 | 16.11 |  |  |  |
|  |  |  | Cc1ccccc1C [o-Xylene, o-xylene] | 46.39 | 13.96 | 22.28 | 17.37 |  |  |  |
